Consider one compound from ChEMBL document CHEMBL1221220, “Transport and signaling via the amino acid binding site of the yeast Gap1 amino acid transceptor” (Nat Chem Biol, 2009).

Assay [1] deals with T1, General amino-acid permease GAP1 (Saccharomyces cerevisiae), P19145 [V381C].
T1 sequence (whole entry): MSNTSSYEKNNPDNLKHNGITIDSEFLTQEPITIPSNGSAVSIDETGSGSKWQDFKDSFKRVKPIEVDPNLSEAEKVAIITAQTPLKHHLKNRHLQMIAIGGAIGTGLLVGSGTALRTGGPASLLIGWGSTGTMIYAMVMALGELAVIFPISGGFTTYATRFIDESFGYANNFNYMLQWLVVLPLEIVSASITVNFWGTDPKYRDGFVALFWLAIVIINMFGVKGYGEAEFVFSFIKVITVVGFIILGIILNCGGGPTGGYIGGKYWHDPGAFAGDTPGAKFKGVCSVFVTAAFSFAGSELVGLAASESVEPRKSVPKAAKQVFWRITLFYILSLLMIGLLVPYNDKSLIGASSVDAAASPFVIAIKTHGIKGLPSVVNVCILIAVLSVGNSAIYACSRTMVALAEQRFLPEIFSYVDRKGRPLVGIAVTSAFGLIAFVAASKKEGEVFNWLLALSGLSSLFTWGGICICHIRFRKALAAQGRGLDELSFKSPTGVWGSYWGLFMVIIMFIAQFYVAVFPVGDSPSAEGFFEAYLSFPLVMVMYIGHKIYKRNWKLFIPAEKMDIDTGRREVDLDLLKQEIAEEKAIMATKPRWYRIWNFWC
Kind of assay: Activation of yeast Gap1 V381C mutant-mediated amino acid uptake at 10 mM.

For assay [2], the system named is T2, General amino-acid permease GAP1 (Saccharomyces cerevisiae), P19145 [A393C].
T2 sequence (whole entry): T1 sequence (whole entry) with C381V, A393C
The assay is described as follows: Activation of yeast Gap1 A393C mutant-mediated amino acid uptake at 10 mM.

For assay [3], the system named is T3, General amino-acid permease GAP1 (Saccharomyces cerevisiae), P19145 [N391C].
T3 sequence (whole entry): T1 sequence (whole entry) with C381V, N391C
The assay is described as follows: Induction of yeast Gap1 N391C mutant-mediated trehalose activation at 2 mM in presence of 10 mM MTSEA treated before compound addition.

Assay [4] has as its system T4, General amino-acid permease GAP1 (Saccharomyces cerevisiae), P19145 [T400C].
T4 sequence (whole entry): T1 sequence (whole entry) with C381V, T400C
The assay is described as follows: Induction of yeast Gap1 T400C mutant-mediated trehalose activation at 2 mM in presence of 10 mM MTSEA treated before compound addition.

The structures appear in SMILES notation. Changes are numbered by the printed parent chain. Calls of active or inactive are those of the source. The calls are words filed in the database; no cut-off is given here.

Regarding `NC(=O)NCCC[C@H](N)C(=O)O`, the result in assay [1] and in assay [2] was inactive. For the same compound, the inhibition result in assay [3] and in assay [4] was “Active” throughout.
